Assay results from patent US9682069B2, “Methods of treating Dravet syndrome” (Ovid Therapeutics Inc., priority 2015, dated 2017).
Entries after “also recorded” stand apart in the source; their conditions may differ.

Tests used:
[1] = in vivo, po
[2] = Study of driving performance after gaboxadol administration (Example 3); assay type: in vivo, human (healthy male and female subjects); conditions: for effect on memory test, body sway, DSST or critical tracking: cognitive and psychomotor test battery before the driving test
Source text: The study participants included healthy, male and female subjects between 21 and 45 years of age, with a valid drivers license for at least 3 years.
Following a cognitive and psychomotor test battery, the driving test started at 9 am and lasted for one hour.

[3] = three-month efficacy study, insomnia; cited from earlier work
[4] = Study of daytime performance after sleep restriction (Example 4); assay type: in vivo, human (healthy adults)
Protocol: The study included a 2-night single-blind placebo run-in period, a 4-night double-blind treatment period during which sleep was restricted to 5 hours and a 2-night single-blind placebo run-out period. The study included healthy male and female volunteers 18 to <55 years of age.
2-night run-in period: All patients received placebo
2-night run-out period: All patients received placebo
The primary endpoints included observations based on the Multiple Sleep Latency Test (MSLT) and Slow Wave Sleep (SWS) assessment.

[5] = 111 individuals with depression; cited from earlier work

## CCN(CC)CCN1C(=O)CN=C(c2ccccc2F)c2cc(Cl)ccc21 [Flurazepam]
[1]
  residual effect on primary endpoints Choice Reaction Time and Critical Flicker Fusion: showed significant effect

## Oc1noc2c1CCNC2 [gaboxadol, 4,5,6,7-tetrahydroisoxazolo [5,4-c]pyridine-3-ol]
[2]; both the evening and the middle-of-the-night dose, 15 mg
  tolerability: well tolerated
[2]
  effect on memory test, body sway, DSST or critical tracking: no effect
[3]
  effects in sleep onset and sleep maintenance: failed to show significant effects
[1]
  residual effect on primary endpoints Choice Reaction Time and Critical Flicker Fusion: did not show residual effect
  residual effects on other measurements (MSLT, DSST, Tracking, Memory tests, Body Sway, Leeds Sleep Evaluation Questionnaire): did not show any signs of residual effects
[4]; gaboxadol 15 mg versus placebo
  daytime performance, effect sizes for the neurocognitive battery: no strong evidence that gaboxadol improves daytime performance
[4]; gaboxadol 15 mg, Sleep Restriction period
  subjective daytime sleepiness versus placebo: trend towards less subjective daytime sleepiness
[4]; gaboxadol 15 mg, Sleep Restriction period, p<0.001, 1 sided
  amount of slow wave sleep (SWS) versus placebo: significantly more SWS; also recorded: increases the amount of slow wave sleep
[4]; gaboxadol 15 mg, Sleep Restriction period, p=0.047, 1 sided
  daytime sleepiness (MSLT) versus placebo: significantly less daytime sleepiness; also recorded: protective effect on reducing daytime sleepiness
[4]; gaboxadol 15 mg, last two Sleep Restriction days
  MSLT, average difference versus placebo (longer): 2.01 min
[4]; gaboxadol 15 mg, last two Sleep Restriction days, LDA model, p=0.058, 1 sided
  Karolinska Sleepiness Score (KSS), average difference versus placebo (less): 0.68
[4]; gaboxadol 15 mg, last two Sleep Restriction nights
  SWS, average difference versus placebo (longer): 20.53 min

## OC(c1ccccc1)(c1ccccc1)C1CCCCN1 (centres unmarked) [pipradrol]
[5]
  efficacy versus placebo in depression: not superior to placebo

## Cc1ccc(-c2nc3ccc(C)cn3c2CC(=O)N(C)C)cc1 [zolpidem]
[2]; dose at 4 am (gaboxadol 15 mg; zolpidem 10 mg), on-the-road driving test at 9 am
  effect on driving performance, middle-of-the-night administration: numerically greater effect

## CN1CCN(C(=O)OC2c3nccnc3C(=O)N2c2ccc(Cl)cn2)CC1 (centres unmarked) [zopiclone]
[2]
  effect on memory test, body sway, DSST or critical tracking: had effect on several of these tests
[2]; evening dose before bed (gaboxadol 15 mg; zopiclone 7.5 mg), on-the-road driving test at 9 am
  effect on driving performance, evening dose: numerically greater effect
